Measurements: article PMC8286840, “Identifying SARS-CoV-2 antiviral compounds by screening for small molecule inhibitors of Nsp3 papain-like protease” (Biochemical Journal, 2021)
Structures can show the parent of a compound that is named as a salt. Where two headings read alike, the source gives them in different places.

Columns and labels:
[1] = target: T1, SARS-CoV-2 PLpro (nsp3 1564–1878) (Severe acute respiratory syndrome coronavirus 2, UniProt P0DTD1); experiment: biochemical; parameters: FRET-quenched peptide (Pro3) cleavage by PLpro, 10 min pre-incubation, slope over 20 min, normalised to no-compound control; settings: high concentration screen, read-out: % of control remaining
Description: The plates were organized with columns 3–22 containing the compounds; the remaining columns were used for reaction controls including substrate only and substrate with enzyme but no compound (Figure 3Aii). The PLpro enzyme was pre-incubated with the compounds for 10 min, and then the reaction was initiated by the addition of substrate. […] We incubated the inhibitors with PLpro before the enzymatic reaction so that the slow-binding inhibitors will not be missed out [21]. […] Fluorescence was read on a Spark multimode microplate reader (Tecan) with an excitation wavelength at 330 nm and emission wavelength at 420 nm. […] An amount of 5 µl of the enzyme was pre-incubated with compounds for 10 min before the addition of 15 µl substrate. Fluorescence was monitored at 2 min for 20 min with 3 min intervals giving a total of seven readings.

[2] = target: T1, SARS-CoV-2 PLpro (nsp3 1564–1878); experiment: biochemical; parameters: FRET-quenched peptide (Pro3) cleavage by PLpro, 10 min pre-incubation, slope over 20 min, normalised to no-compound control; settings: low concentration screen, read-out: % of control remaining

COc1cccc2c1C(=O)c1c(O)c3c(c(O)c1C2=O)C[C@@](O)(C(=O)CO)C[C@@H]3O[C@H]1C[C@H](N)[C@H](O)[C@H](C)O1 [Doxorubicin.HCl]
remaining activity at 3.75 µM ([1]; Well no.=1710): 100% | remaining activity at 3.75 µM ([1]; Well no.=3235): 105% | remaining activity at 1.25 µM ([2]; Well no.=1710): 98.5% | remaining activity at 1.25 µM ([2]; Well no.=3235): 105%

O=NN(CCCl)C(=O)NCCCl [Carmustine]
remaining activity at 3.75 µM ([1]; Well no.=137): 102% | remaining activity at 1.25 µM ([2]; Well no.=137): 102%

CCCCC/C=C\C/C=C\CCCCCCCCCCCC(=O)O [13(Z),16(Z)-Docosadienoic acid]
remaining activity at 3.75 µM ([1]; Well no.=4462): 101% | remaining activity at 1.25 µM ([2]; Well no.=4462): 100%

O=C(O)c1ccc(O)cc1 [4-Hydroxybenzoic acid]
remaining activity at 3.75 µM ([1]; Well no.=6729): 105% | remaining activity at 1.25 µM ([2]; Well no.=6729): 108%

NCC(O)c1ccc(O)cc1 (racemic)
remaining activity at 3.75 µM ([1]; Well no.=1038): 95.7% | remaining activity at 1.25 µM ([2]; Well no.=1038): 97.4%

O=C(O)CCC(=O)C(=O)O [2-Ketoglutaric acid]
remaining activity at 3.75 µM ([1]; Well no.=7061): 98.4% | remaining activity at 1.25 µM ([2]; Well no.=7061): 103%

CC(=O)Nc1ccc(OC[C@](C)(O)C(=O)Nc2ccc([N+](=O)[O-])c(C(F)(F)F)c2)cc1 [Andarine (GTX-007)]
remaining activity at 3.75 µM ([1]; Well no.=5053): 104% | remaining activity at 1.25 µM ([2]; Well no.=5053): 102%

C=CCN1CC[C@]23c4c5ccc(O)c4O[C@H]2/C(=N/N=C2\CC[C@@]4(O)[C@H]6Cc7ccc(O)c8c7[C@@]4(CCN6CC=C)[C@H]2O8)CC[C@@]3(O)[C@H]1C5 [Naloxonazine]
remaining activity at 3.75 µM ([1]; Well no.=2062): 105% | remaining activity at 1.25 µM ([2]; Well no.=2062): 101%

Nc1nc2ccc(Cl)cc2n2c(-c3ccccc3)nnc12 [CP-66713]
remaining activity at 3.75 µM ([1]; Well no.=5624): 96% | remaining activity at 1.25 µM ([2]; Well no.=5624): 96.6%

CN(C)CCCOc1nn(Cc2ccccc2)c2ccccc12 [Benzydamine]
remaining activity at 3.75 µM ([1]; Well no.=2302): 96.1% | remaining activity at 1.25 µM ([2]; Well no.=2302): 95.4%

O=C(O)Cc1c[nH]c2ccccc12 [3-Indoleacetic acid]
remaining activity at 3.75 µM ([1]; Well no.=6255): 113% | remaining activity at 1.25 µM ([2]; Well no.=6255): 108%

COc1ccc(CC[C@@H](OC(=O)[C@@H]2CCCCN2C(=O)[C@H](c2cc(OC)c(OC)c(OC)c2)C2CCCCC2)c2cccc(OCCN3CCOCC3)c2)cc1OC [SAFit2]
remaining activity at 3.75 µM ([1]; Well no.=7064): 92.2% | remaining activity at 1.25 µM ([2]; Well no.=7064): 96.3%

CC(C)(C)c1ccc(S(=O)(=O)/C=C/C#N)cc1 [Bay 11-7085]
remaining activity at 3.75 µM ([1]; Well no.=127): 105% | remaining activity at 1.25 µM ([2]; Well no.=127): 105%

CCCCC1=NC2(CCCC2)C(=O)N1Cc1ccc(-c2ccccc2-c2nnn[nH]2)cc1 [2-butyl-3-{[2'-(1H-tetraazol-5-yl)[1,1'-biphenyl]-4-yl]methyl}-1,3-diazaspiro[4.4]non-1-en-4-one]
remaining activity at 3.75 µM ([1]; Well no.=5468): 104% | remaining activity at 1.25 µM ([2]; Well no.=5468): 98%

CC(C)(C)c1cc(C(C)(C)C)c(NC(=O)c2c[nH]c3ccccc3c2=O)cc1O [Ivacaftor (VX-770)]
remaining activity at 3.75 µM ([1]; Well no.=5055): 102% | remaining activity at 1.25 µM ([2]; Well no.=5055): 105%

COC(=O)[C@@H](N)Cc1ccc(O)c(O)c1 [L-3,4-Dihydroxyphenylalanine methyl ester hydrochloride]
remaining activity at 3.75 µM ([1]; Well no.=541): 103% | remaining activity at 1.25 µM ([2]; Well no.=541): 103%

CCCN(CCC)C1Cc2cc(OC)c(OC)cc2C1 [U-99194A maleate]
remaining activity at 3.75 µM ([1]; Well no.=1192): 99.6% | remaining activity at 1.25 µM ([2]; Well no.=1192): 100%

CC(C)(N)C(=O)N[C@H](COCc1ccccc1)C(=O)N1CCC2(CC1)CN(S(C)(=O)=O)c1ccccc12 [Ibutamoren (Mesylate)]
remaining activity at 3.75 µM ([1]; Well no.=6186): 94.2% | remaining activity at 1.25 µM ([2]; Well no.=6186): 98.5%

COc1cc2c(cc1O)CCN[C@]21CS[C@@H]2c3c(OC(C)=O)c(C)c4c(c3[C@H](COC1=O)N1[C@@H]2[C@H]2c3c(cc(C)c(OC)c3O)C[C@@H]([C@@H]1C#N)N2C)OCO4 [Ecteinascidin 770]
remaining activity at 3.75 µM ([1]; Well no.=7070): 97.2% | remaining activity at 1.25 µM ([2]; Well no.=7070): 100%

COC[C@H](NC(=O)c1cnc(C)s1)C(=O)N[C@@H](COC)C(=O)N[C@@H](Cc1ccccc1)C(=O)[C@@]1(C)CO1 [Oprozomib (ONX 0912)]
remaining activity at 3.75 µM ([1]; Well no.=4976): 89.5% | remaining activity at 1.25 µM ([2]; Well no.=4976): 90.1%

COc1cc(NS(=O)(=O)c2ccc(N)cc2)nc(OC)n1 [Sulfadimethoxine]
remaining activity at 3.75 µM ([1]; Well no.=2291): 91.8% | remaining activity at 3.75 µM ([1]; Well no.=8358): 95.5% | remaining activity at 1.25 µM ([2]; Well no.=2291): 93.2% | remaining activity at 1.25 µM ([2]; Well no.=8358): 95.1%

CN(C)CC(=O)O [N-Methylsarcosine]
remaining activity at 3.75 µM ([1]; Well no.=6873): 102% | remaining activity at 1.25 µM ([2]; Well no.=6873): 104%

CCOC(=O)OC(C)OC1=C(C(=O)Nc2ccccn2)N(C)S(=O)(=O)c2ccccc21 (stereo not drawn) [Ampiroxicam]
remaining activity at 3.75 µM ([1]; Well no.=2125): 103% | remaining activity at 1.25 µM ([2]; Well no.=2125): 101%

NC[C@H]1O[C@H](O[C@H]2[C@H](O)[C@@H](O[C@H]3O[C@H](CO)[C@@H](O)[C@H](N)[C@H]3O)[C@H](N)C[C@@H]2N)[C@H](O)[C@@H](O)[C@@H]1O [Kanamycin sulfate]
remaining activity at 3.75 µM ([1]; Well no.=3428): 96.2% | remaining activity at 1.25 µM ([2]; Well no.=3428): 97.3%

C[C@H](CCC(=O)O)[C@H]1CC[C@H]2[C@@H]3[C@H](O)C[C@@H]4C[C@H](O)CC[C@]4(C)[C@H]3CC[C@]12C [Chenodeoxycholic Acid]
remaining activity at 3.75 µM ([1]; Well no.=6483): 101% | remaining activity at 3.75 µM ([1]; Well no.=8382): 88.2% | remaining activity at 1.25 µM ([2]; Well no.=6483): 99.2% | remaining activity at 1.25 µM ([2]; Well no.=8382): 96.1%

CC(C)(O)[C@H]1CC[C@@](C)([C@H]2[C@@H](O)C[C@@]3(C)[C@@H]4C[C@H](O[C@@H]5O[C@H](CO)[C@@H](O)[C@H](O)[C@H]5O)[C@H]5C(C)(C)[C@@H](O[C@@H]6OC[C@@H](O)[C@H](O)[C@H]6O)CC[C@@]56C[C@@]46CC[C@]23C)O1 [Astragaloside A]
remaining activity at 3.75 µM ([1]; Well no.=5238): 102% | remaining activity at 1.25 µM ([2]; Well no.=5238): 98.6%

O=C1CC[C@@]2(O)[C@H]3Cc4ccc(O)c5c4[C@@]2(CCN3CC2CC2)[C@H]1O5 [Naltrexone (Hydrochloride)]
remaining activity at 3.75 µM ([1]; Well no.=8147): 95.1% | remaining activity at 1.25 µM ([2]; Well no.=8147): 98.3%

COc1ccc(C(C)=O)c(O)c1 [Paeonol]
remaining activity at 3.75 µM ([1]; Well no.=4045): 101% | remaining activity at 3.75 µM ([1]; Well no.=8194): 102% | remaining activity at 1.25 µM ([2]; Well no.=4045): 100% | remaining activity at 1.25 µM ([2]; Well no.=8194): 105%

Cc1c(-c2ccnn2C)cc(C(=O)NCc2ccc(S(C)(=O)=O)cn2)c(=O)n1-c1cccc(C(F)(F)F)c1 [Alvelestat (AZD9668)]
remaining activity at 3.75 µM ([1]; Well no.=9174): 83.8% | remaining activity at 1.25 µM ([2]; Well no.=9174): 95.1%

CCCCCCCCCCCCC/C=C/[C@@H](O)[C@H](CO)NC(=O)CCCCC [C6 Ceramide]
remaining activity at 3.75 µM ([1]; Well no.=3123): 101% | remaining activity at 1.25 µM ([2]; Well no.=3123): 100%

CC(O)Cn1cnc2c1c(=O)n(C)c(=O)n2C (stereo not drawn) [Proxyphylline]
remaining activity at 3.75 µM ([1]; Well no.=6220): 94% | remaining activity at 3.75 µM ([1]; Well no.=8073): 108% | remaining activity at 1.25 µM ([2]; Well no.=6220): 94.5% | remaining activity at 1.25 µM ([2]; Well no.=8073): 105%
